The text below walks through data of patent US12239643B2, “Therapeutic agent for inflammatory diseases, autoimmune diseases, fibrotic diseases, and cancer diseases” (MEIJI SEIKA PHARMA CO., LTD., priority 2018, dated 2025).

In the first test the test system is PDE4. Briefly: Evaluation of PDE4 inhibitory activity, scintillation proximity assay. The format is biochemical. The note with it: scintillation proximity assay; class symbols of Evaluation 1; read-out: PDE4 Inhibitory Activity (concentration for the inhibition rate of 50%, IC50), Evaluation 1. In short, it runs like this: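 SPA with [2,8-3H]-cAMP and diluted PDE4 enzyme preparation in 50 mM Tris-HCl pH 7.4, 8.3 mM MgCl2, 1.7 mM EGTA, 3 mg/mL BSA, 120 min at room temperature. Product captured on ZnSO4-containing YSi-SPA beads, scintillation counted; IC50 from inhibition curves vs DMSO control and no-enzyme blank.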
For `COC(c1cc(-c2nccs2)c2oc(N3CC4CC(C3)N4)nc2c1)C(F)(F)F` (stereo not drawn) [Example 144, 2-(3,6-Diazabicyclo[3.1.1]heptan-3-yl)-7-(thiazol-2-yl)-5-(2,2,2-trifluoro-1-methoxyethyl)benzo[d]oxazole], the IC50 was under 100 nM. On the same count and under the same terms, the result for `CS(=O)(=O)c1cc(-c2nccs2)c2oc(N3CC4CC(C3)N4)nc2c1` [Example 46, 2-(3,6-Diazabicyclo[3.1.1]heptan-3-yl)-5-(methylsulfonyl)-7-(thiazol-2-yl)benzo[d]oxazole] reads under 100 nM; that for `COc1cc(-c2nccs2)c2oc(N3CC4CCC(C3)N4)nc2c1` [Example 60, 2-(3,8-Diazabicyclo[3.2.1]octan-3-yl)-5-methoxy-7-(thiazol-2-yl)benzo[d]oxazole], under 100 nM; that for `OC(O)(c1cc(-c2nccs2)c2oc(N3CC4CCC(C3)N4)nc2c1)C(F)(F)F` [Example 157, 1-(2-(3,8-Diazabicyclo[3.2.1]octan-3-yl)-7-(thiazol-2-yl)benzo[d]oxazol-5-yl)-2,2,2-trifluoroethane-1,1-diol], under 100 nM. The same measure, in the same setting: the result for `FC(F)(F)c1c(Cl)cc(-n2cccn2)c2oc(N3CC4CCCC(C3)N4)nc12` [Example 16, 2-(3,9-Diazabicyclo[3.3.1]nonan-3-yl)-5-chloro-7-(1H-pyrazol-1-yl)-4-(trifluoromethyl)benzo[d]oxazole] reads under 100 nM; that for `COC(C)(c1cc(-c2nccs2)c2oc(N3CC4CC(C3)N4)nc2c1)C(F)(F)F` (stereo not drawn) [Example 103, 2-(3,6-Diazabicyclo[3.1.1]heptan-3-yl)-7-(thiazol-2-yl)-5-(1,1,1-trifluoro-2-methoxypropan-2-yl)benzo[d]oxazole], under 100 nM; that for `OCc1ccc(-c2nccs2)c2oc(N3CC4CCCC(C3)N4)nc12` [Example 134, (2-(3,9-Diazabicyclo[3.3.1]nonan-3-yl)-7-(thiazol-2-yl)benzo[d]oxazol-4-yl)methanol], under 100 nM.

On to `CC(O)(c1ccc(-c2nccs2)c2oc(N3CC4CC(C3)N4)nc12)C(F)F` (stereo not drawn) [Example 126, 2-(2-(3,6-Diazabicyclo[3.1.1]heptan-3-yl)-7-(thiazol-2-yl)benzo[d]oxazol-4-yl)-1,1-difluoropropan-2-ol], for which the IC50 was under 100 nM. The same measure, in the same setting: next, `OCc1ccc(-c2nccs2)c2oc(N3CC4CCC(C3)N4)nc12` [Example 132, (2-(3,8-Diazabicyclo[3.2.1]octan-3-yl)-7-(thiazol-2-yl)benzo[d]oxazol-4-yl)methanol]: under 100 nM.

As for `CC(=O)c1cc(-c2nccs2)c2oc(N3CC4CCC(C3)N4)nc2c1C(F)(F)F` [Example 179, 1-(2-(3,8-Diazabicyclo[3.2.1]octan-3-yl)-7-(thiazol-2-yl)-4-(trifluoromethyl)benzo[d]oxazol-5-yl)ethan-1-one], the IC50 was under 100 nM. Regarding `NC(=O)c1cc(-c2nccs2)c2oc(N3CC4CCC(C3)N4)nc2c1` [Example 99, 2-(3,8-Diazabicyclo[3.2.1]octan-3-yl)-7-(thiazol-2-yl)benzo[d]oxazole-5-carboxamide], the IC50 is under 100 nM. On the same count and under the same terms, the result for `CCOC(=O)c1cc(-n2cccn2)c2oc(N3CC4CCC(C3)N4)nc2c1` [Example 90, Ethyl 2-(3,8-diazabicyclo[3.2.1]octan-3-yl)-7-(1H-pyrazol-1-yl)benzo[d]oxazole-5-carboxylate] reads 100 to 1000 nM; that for `CCOC(=O)c1cc(-c2nccs2)c2oc(N3CC4CCC(C3)N4)nc2c1` [Example 86, Ethyl 2-(3,8-diazabicyclo[3.2.1]octan-3-yl)-7-(thiazol-2-yl)benzo[d]oxazole-5-carboxylate], under 100 nM.

Staying with this test, now noted: scintillation proximity assay; read-out: PDE4 Inhibitory Activity (Evaluation 1; concentration for the inhibition rate of 50%).
As to `O=S1(=O)CCN(c2ccc(-c3nccs3)c3oc(N4CC5CC(C4)N5)nc23)CC1` [Example 398, 4-(2-(3,6-Diazabicyclo[3.1.1]heptan-3-yl)-7-(thiazol-2-yl)benzo[d]oxazol-4-yl)thiomorpholine 1,1-dioxide], the IC50 is under 100 nM.

Consider `O=C(c1cc(-c2nccs2)c2oc(N3CC4CCC(C3)N4)nc2c1OC(F)(F)F)N1CCC1` [Example 192, (2-(3,8-Diazabicyclo[3.2.1]octan-3-yl)-7-(thiazol-2-yl)-4-(trifluoromethoxy)benzo[d]oxazol-5-yl)(azetidin-1-yl)methanone], for which the IC50 was under 100 nM. On the same count and under the same terms, the result for `COCCOC(c1ccc(-c2nccs2)c2oc(N3CC4CC(C3)N4)nc12)C(F)(F)F` (stereo not drawn) [Example 229, 2-(3,6-Diazabicyclo[3.1.1]heptan-3-yl)-7-(thiazol-2-yl)-4-(2,2,2-trifluoro-1-(2-methoxyethoxy)ethyl)benzo[d]oxazole] reads under 100 nM; that for `COC(C)(C)C(F)(F)Oc1ccc(-c2nccs2)c2oc(N3CC4CC(C3)N4)nc12` [Example 393, 2-(3,6-Diazabicyclo[3.1.1]heptan-3-yl)-4-(1,1-difluoro-2-methoxy-2-methylpropoxy)-7-(thiazol-2-yl)benzo[d]oxazole], under 100 nM. Regarding `CN(CCO)C(=O)C(F)(F)Oc1ccc(-c2nccs2)c2oc(N3CC4CC(C3)N4)nc12` [Example 407, 2-((2-(3,6-Diazabicyclo[3.1.1]heptan-3-yl)-7-(thiazol-2-yl)benzo[d]oxazol-4-yl)oxy)-2,2-difluoro-N-(2-hydroxyethyl)-N-methylacetamide], the IC50 was under 100 nM. Same read-out and setting: next, `CCOC(=O)c1cc(-c2nccs2)c2oc(N3CC4CCC(C3)N4)nc2c1OC(F)(F)F` [Example 186, Ethyl 2-(3,8-diazabicyclo[3.2.1]octan-3-yl)-7-(thiazol-2-yl)-4-(trifluoromethoxy)benzo[d]oxazole-5-carboxylate]: under 100 nM; `N#CCOC(c1ccc(-c2nccs2)c2oc(N3CC4CCC(C3)N4)nc12)C(F)(F)F` (stereo not drawn) [Example 228, 2-(1-(2-(3,8-Diazabicyclo[3.2.1]octan-3-yl)-7-(thiazol-2-yl)benzo[d]oxazol-4-yl)-2,2,2-trifluoroethoxy)acetonitrile]: under 100 nM.

Consider `OC(COc1ccc(-c2nccs2)c2oc(N3CC4CC(C3)N4)nc12)C(F)(F)F` (stereo not drawn) [Example 277, 3-((2-(3,6-Diazabicyclo[3.1.1]heptan-3-yl)-7-(thiazol-2-yl)benzo[d]oxazol-4-yl)oxy)-1,1,1-trifluoropropan-2-ol], for which the IC50 was under 100 nM. On the same count and under the same terms, the result for `c1csc(-c2ccc(N3CCCC3)c3nc(N4CC5CC(C4)N5)oc23)n1` [Example 415, 2-(3,6-Diazabicyclo[3.1.1]heptan-3-yl)-4-(pyrrolidin-1-yl)-7-(thiazol-2-yl)benzo[d]oxazole] reads under 100 nM; that for `CC(=O)c1ccc(-c2nccs2)c2oc(N3CC4CCC(C3)N4)nc12` [Example 245, 1-(2-(3,8-Diazabicyclo[3.2.1]octan-3-yl)-7-(thiazol-2-yl)benzo[d]oxazol-4-yl)ethan-1-one], under 100 nM. On the same count and under the same terms, next, `COC(C)(C)c1cc(-c2cscn2)c2oc(N3CC4CCC(C3)N4)nc2c1OC(F)(F)F` [Example 298, 2-(3,8-Diazabicyclo[3.2.1]octan-3-yl)-5-(2-methoxypropan-2-yl)-7-(thiazol-4-yl)-4-(trifluoromethoxy)benzo[d]oxazole]: under 100 nM. Same read-out and setting: next, `COC1(COC(c2ccc(-c3nccs3)c3oc(N4CC5CC(C4)N5)nc23)C(F)(F)F)CC1` (stereo not drawn) [Example 282, 2-(3,6-Diazabicyclo[3.1.1]heptan-3-yl)-7-(thiazol-2-yl)-4-(2,2,2-trifluoro-1-((1-methoxycyclopropyl)methoxy)ethyl)benzo[d]oxazole]: under 100 nM; `COC(C)c1ccc(-c2nccs2)c2oc(N3CC4CCCC(C3)N4)nc12` (stereo not drawn) [Example 243, 2-(3,9-Diazabicyclo[3.3.1]nonan-3-yl)-4-(1-methoxyethyl)-7-(thiazol-2-yl)benzo[d]oxazole]: under 100 nM. `COC(C)c1cc(-c2nccs2)c2oc(N3CC4CC(C3)N4)nc2c1OC(F)(F)F` (stereo not drawn) [Example 211, 2-(3,6-Diazabicyclo[3.1.1]heptan-3-yl)-5-(1-methoxyethyl)-7-(thiazol-2-yl)-4-(trifluoromethoxy)benzo[d]oxazole]: the IC50 was under 100 nM. Same read-out and setting: next, `CC(C)(O)c1cc(-c2nccs2)c2oc(N3CC4CCCC(C3)N4)nc2c1OC(F)(F)F` [Example 197, 2-(2-(3,9-Diazabicyclo[3.3.1]nonan-3-yl)-7-(thiazol-2-yl)-4-(trifluoromethoxy)benzo[d]oxazol-5-yl)propan-2-ol]: under 100 nM; `c1csc(-c2ccc(C3CCC3)c3nc(N4CC5CC(C4)N5)oc23)n1` [Example 414, 2-(3,6-Diazabicyclo[3.1.1]heptan-3-yl)-4-cyclobutyl-7-(thiazol-2-yl)benzo[d]oxazole]: under 100 nM.

Turning to `OC(c1cc(-c2cscn2)c2oc(N3CC4CC(C3)N4)nc2c1OC(F)(F)F)C(F)F` (stereo not drawn) [Example 301, 1-(2-(3,6-Diazabicyclo[3.1.1]heptan-3-yl)-7-(thiazol-4-yl)-4-(trifluoromethoxy)benzo[d]oxazol-5-yl)-2,2-difluoroethan-1-ol], the IC50 was under 100 nM. The same measure, in the same setting: next, `OCCOC(c1ccc(-c2nccs2)c2oc(N3CC4CCC(C3)N4)nc12)C(F)(F)F` (stereo not drawn) [Example 225, 2-(1-(2-(3,8-Diazabicyclo[3.2.1]octan-3-yl)-7-(thiazol-2-yl)benzo[d]oxazol-4-yl)-2,2,2-trifluoroethoxy)ethan-1-ol]: under 100 nM.

Take `OC1(c2cc(-c3cscn3)c3oc(N4CC5CC(C4)N5)nc3c2OC(F)(F)F)CC1` [Example 299, 1-(2-(3,6-Diazabicyclo[3.1.1]heptan-3-yl)-7-(thiazol-4-yl)-4-(trifluoromethoxy)benzo[d]oxazol-5-yl)cyclopropan-1-ol]: the IC50 is under 100 nM.

`FC(F)(F)COC(c1ccc(-c2nccs2)c2oc(N3CC4CCC(C3)N4)nc12)C(F)(F)F` (stereo not drawn) [Example 221, 2-(3,8-Diazabicyclo[3.2.1]octan-3-yl)-7-(thiazol-2-yl)-4-(2,2,2-trifluoro-1-(2,2,2-trifluoroethoxy)ethyl)benzo[d]oxazole]: the IC50 was under 100 nM.
